Measurements: patent US9682931B2, “Aryloyl(oxy or amino)pentafluorosulfanylbenzene compound, pharmaceutically acceptable salt thereof, and prodrugs thereof” (UBE INDUSTRIES, LTD., priority 2013, dated 2017)
Converted amounts (≈) assume the structure as drawn.

Columns and labels:
Assay type in all cases: cell-based
[1] = system: Salmonella typhimurium TA98 strain and TA100 strain; test: Growth inhibitory action and bactericidal action on salmonella (preincubation method, with and without S9 mix); conditions: TA98 and TA100, presence or absence of S9 mix; for Bactericidal action: lowest concentration at which all bacterial cells were killed; for Growth inhibition: lowest concentration at which growth was inhibited
Protocol: Growth inhibitory action and bactericidal action on salmonella
1) Preparation of Test-Substance Solution
Test substances (compounds listed in Table 1) each were prepared by dissolving it in DMSO when used. Preparation was made in such a manner that the highest dose became 5000 μg/plate and the dose lower than this was prepared by a dilution method. In the table, reference numerals of individual compounds correspond to the numbers of the individual compounds synthesized in the above Examples (the same applies to the following Tables).
Salmonella typhimurium TA98 strain and TA100 strain were used.
These were supplied by Japan Bioassay Research Center, proliferated and examined for genetic properties and other properties in accordance with customary methods, in advance. After these strains were confirmed to have these properties, they are cryopreserved (−80° C.) with a DMSO-added medium; and thawed for use in each test.
3) A cryopreserved strain was thawed and inoculated in a 2.5% aqueous nutrient broth (OXOID No. 2) solution and cultured while shaking at 37° C. for 7 hours to obtain a cell suspension, which was subjected to tests.
A minimum glucose agar plate medium (Vital Media AMT-S, manufactured by Kyokuto Pharmaceutical Industrial Co., Ltd.) was used.
The top agar was prepared when used by blending an aqueous solution of 0.5 mM L-histidine and 0.5 mM D-(+)-biotin with an aqueous solution prepared by adding Bacto Agar (Difco) (0.6%) and sodium chloride (0.5%).
S9 was purchased from Kikkoman; whereas a cofactor was previously prepared in accordance with a method known in the art. They were mixed in a customary method to prepare S9 mix.
Using a test system containing S9 mix and a test system containing no S9 mix, a test was carried out in accordance with a preincubation method. As the dose selection, the highest dose was specified as […], which was then serially diluted in a common ratio of 2 to prepare a total of 15 doses to be used in the test.
To a sterile test tube, a test solution (0.1 mL) and 0.1 M Na-phosphate buffer or S9 mix (0.5 mL) and a cell suspension (0.1 mL) were sequentially dispensed. Pre-incubation was carried out at 37° C. for 20 minutes while shaking. After completion of the pre-incubation, top agar (2 mL) kept warm at 45° C. was added, mixed and placed on a minimum glucose agar plate medium. After solidification, the plate was turned upside down and cultured at 37° C. for 48 hours.
After completion of the culture, the state of microbial growth was observed by a stereomicroscope. After a precipitate on the plate was observed, revertant colonies were counted by the naked eye or a colony counter.
7) Criteria for Determination
Growth of both TA98 and TA100 strains was examined in the presence or absence of S9 mix. Among the resultant concentrations at which growth was inhibited, the lowest concentration was specified as the growth inhibitory concentration. Similarly, the bactericidal concentration was specified as the lowest concentration at which all bacterial cells were killed.

[2] = system: K562 human leukemia-derived cell lines; test: K562 human leukemia cell-proliferation inhibition test; conditions: Homo sapiens, K562, 72 h, K562 cells, 72 hours, viable cells counted with trypan blue; read-out: IC50
Protocol: K562 Human Leukemia Cell-Proliferation Inhibition Test
A cell proliferation inhibition test using K562 cells was performed. The activity in the presence of a test substance was compared to the activity in the presence of green tea polyphenol (GTP). The materials used in the test are as follows.
Cells: K562 human leukemia-derived cell lines (DS Pharma Biomedical Co., Ltd.)
Control Substance: Green Tea Polyphenols, abbreviation: GTP (LKT Laboratories, Inc.)
Culture solution: 10% equine serum-supplemented RPMI1640 medium
A test substance and a control substance were used by dissolving each of them in DMSO. To a solution (0.99 mL) containing K562 cells in a cell concentration of 20,000 cells/mL, a test substance solution or a control substance solution (0.01 mL) was added and the cells were cultured. Seventy two hours later, a part of the cells was stained with trypan blue and viable cells were counted by a counting chamber.
In Table 2, “IC50” denotes the sample concentration inhibiting 50% of cell proliferation

[3] = system: Staphylococcus aureus MRSAIID 1677 (methicillin-resistant staphylococcus aureus; MRSA); test: Antimicrobial test, minimum inhibitory concentration (MIC), MRSA; conditions: 36±1° C., 24 hours
Protocol: Antimicrobial/Antifungal Test
Measurement of the Minimum Inhibitory Concentration (MIC) of a Test Substance
The minimum inhibitory concentration (MIC) of test substances (Compound 3, Compound 7) on a microorganism was measured.
1) Test Microbe (a) Staphylococcus aureus MRSAIID 1677 (methicillin-resistant staphylococcus aureus; MRSA) (b) Trichophyton mentagrophytes NBRC5466 (trichophyton)
2) Preparation of Microbe Solution for Inoculation
Test microbe (a): A strain cryopreserved was smeared on TSA medium and cultured at 36±1° C. for 24 hours. Grown colonies were scraped out and suspended in a test organism preparation solution, filtered with absorbent cotton. The number of cells was controlled to be about 10^6-7 CFU/mL. The test microbe solution prepared was serially diluted by 10-fold and cultured at 36±1° C. for 48 hours and the microbe cells were counted.
3) Serial Dilution of Test Substance
Two-fold serial dilutions of a test substance were prepared in the following procedure. To a test substance (1 mg), a medium (5 mL) for measuring the sensitivity of each microbe strains was added to obtain a stock solution of 200 μg/mL. […]
A test microbe solution (5 μL) was added dropwise to individual wells of the microplate. […] After culture, whether the microbe proliferated or not was determined by the naked eye. […]

`O=C(Oc1ccc(S(F)(F)(F)(F)F)cc1)c1cc(O)c(O)c(O)c1` [Compound 7, 4-(3,4,5-trihydroxybenzoyloxy)pentafluorosulfanylbenzene] showed a Bactericidal action [1] of 156 μg/plate, a Growth inhibition [1] of 19.5 μg/plate and an IC50 [2] of 1.9 µg/mL (≈ 5.1 µM). The MIC [3] was 0.8 µg/mL (≈ 2.15 µM).

With `O=C(Nc1ccc(S(F)(F)(F)(F)F)cc1)c1cc(O)c(O)c(O)c1` [Compound 3, 4-(3,4,5-trihydroxybenzoylamino)pentafluorosulfanylbenzene] the Bactericidal action [1] was 625 μg/plate, the Growth inhibition [1] was 19.5 μg/plate and the IC50 [2] was 0.81 µg/mL (≈ 2.18 µM). It also gave an MIC [3] of 6.3 µg/mL (≈ 17 µM).
